Test results: BindingDB's records for patent US9796704 (SYMPHONY EVOLUTION, INC., 2017)
pIC50: −log10 of the molar value.

Columns and labels:
Assay in all cases: AlphaScreen Assay
[1] = target: T1, Ephrin type-B receptor 4 (Homo sapiens, UniProt P54760)
T1 sequence (P54760 whole entry): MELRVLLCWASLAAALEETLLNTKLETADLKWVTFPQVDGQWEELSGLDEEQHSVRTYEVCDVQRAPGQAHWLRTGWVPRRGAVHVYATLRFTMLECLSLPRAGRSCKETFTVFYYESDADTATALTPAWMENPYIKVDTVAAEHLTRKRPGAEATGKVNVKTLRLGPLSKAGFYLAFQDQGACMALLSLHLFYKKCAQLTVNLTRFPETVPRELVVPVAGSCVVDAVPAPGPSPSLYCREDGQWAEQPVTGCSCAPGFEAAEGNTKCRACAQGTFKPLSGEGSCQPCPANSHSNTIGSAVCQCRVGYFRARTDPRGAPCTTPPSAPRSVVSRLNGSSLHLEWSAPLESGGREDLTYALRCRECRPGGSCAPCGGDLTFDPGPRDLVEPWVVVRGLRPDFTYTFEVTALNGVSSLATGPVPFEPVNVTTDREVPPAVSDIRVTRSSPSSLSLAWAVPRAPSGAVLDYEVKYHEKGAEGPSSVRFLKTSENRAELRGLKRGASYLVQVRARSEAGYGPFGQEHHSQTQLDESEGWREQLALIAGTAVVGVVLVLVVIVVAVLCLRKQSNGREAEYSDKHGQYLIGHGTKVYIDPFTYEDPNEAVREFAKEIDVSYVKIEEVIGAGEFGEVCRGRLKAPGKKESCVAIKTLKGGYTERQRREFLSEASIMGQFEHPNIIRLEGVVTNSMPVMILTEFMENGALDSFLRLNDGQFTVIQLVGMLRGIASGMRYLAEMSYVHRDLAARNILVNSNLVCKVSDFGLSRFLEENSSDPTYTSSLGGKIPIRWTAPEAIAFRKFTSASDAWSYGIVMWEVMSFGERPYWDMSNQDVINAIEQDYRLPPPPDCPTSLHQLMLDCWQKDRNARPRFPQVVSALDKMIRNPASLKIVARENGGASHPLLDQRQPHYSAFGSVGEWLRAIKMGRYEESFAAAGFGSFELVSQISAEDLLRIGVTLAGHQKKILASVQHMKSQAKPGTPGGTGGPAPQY
Method: (§1) In AlphaScreen, when the donor and acceptor beads are close in proximity, a series of photochemical events will give rise to a fluorescent signal upon light activation. Here we use biotinylated poly-(Glu, Tyr) 4:1 as the kinase substrate, streptavidin-coated donor beads and anti-phosphortyrosine antibody PY100-coated acceptor beads. […] Compounds, ATP, biotinylated poly-(Glu, Tyr) and kinases are mixed in a volume of 20 μL for 1 hr at ambient temperature using Greiner 384-well white clear bottom medium binding plates. Then 10 uL solution containing 15-30 mg/mL AlphaScreen beads, 75 mM Hepes, pH 7.4, 300 mM NaCl, 120 mM EDTA, 0.3% BSA and 0.03% Tween-20 is added to each well. After 2-16 hr incubation of the beads, plates are read in a Perkin Elmer AlphaQuest reader (available from PerkinElmer Life and Analytical Sciences, Inc., of Boston Mass.).

[2] = target: Ephrin type-A receptor 2 (Homo sapiens, UniProt P29317)
Chain of Ephrin type-A receptor 2 (P29317 whole entry): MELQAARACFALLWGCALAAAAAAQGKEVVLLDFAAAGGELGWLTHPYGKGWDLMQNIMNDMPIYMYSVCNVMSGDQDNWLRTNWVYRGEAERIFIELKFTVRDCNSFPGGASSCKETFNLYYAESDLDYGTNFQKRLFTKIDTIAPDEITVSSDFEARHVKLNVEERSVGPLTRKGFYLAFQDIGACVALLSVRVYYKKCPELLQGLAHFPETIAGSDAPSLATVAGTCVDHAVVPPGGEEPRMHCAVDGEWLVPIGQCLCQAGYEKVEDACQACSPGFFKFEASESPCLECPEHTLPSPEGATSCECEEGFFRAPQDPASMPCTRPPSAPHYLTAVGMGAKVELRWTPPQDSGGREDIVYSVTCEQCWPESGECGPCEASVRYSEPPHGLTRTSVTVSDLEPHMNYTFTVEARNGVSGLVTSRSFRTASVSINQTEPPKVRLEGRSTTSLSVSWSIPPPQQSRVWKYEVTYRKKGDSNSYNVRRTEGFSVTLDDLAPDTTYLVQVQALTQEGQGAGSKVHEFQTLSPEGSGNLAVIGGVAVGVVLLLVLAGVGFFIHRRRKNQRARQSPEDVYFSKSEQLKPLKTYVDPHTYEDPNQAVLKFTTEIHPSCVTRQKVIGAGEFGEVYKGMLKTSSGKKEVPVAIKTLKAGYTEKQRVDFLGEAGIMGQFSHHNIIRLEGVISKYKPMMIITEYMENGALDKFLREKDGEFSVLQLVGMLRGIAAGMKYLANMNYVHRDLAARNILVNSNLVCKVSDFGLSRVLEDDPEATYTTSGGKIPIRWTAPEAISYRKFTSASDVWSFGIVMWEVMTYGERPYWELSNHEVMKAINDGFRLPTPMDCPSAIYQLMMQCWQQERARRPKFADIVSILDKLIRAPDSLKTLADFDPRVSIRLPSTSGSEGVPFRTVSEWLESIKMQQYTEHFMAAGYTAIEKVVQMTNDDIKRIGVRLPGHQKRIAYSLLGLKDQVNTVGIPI
Method: as §1

[3] = target: Vascular endothelial growth factor receptor 2 (Homo sapiens, UniProt P35968)
Chain of Vascular endothelial growth factor receptor 2 (P35968 whole entry): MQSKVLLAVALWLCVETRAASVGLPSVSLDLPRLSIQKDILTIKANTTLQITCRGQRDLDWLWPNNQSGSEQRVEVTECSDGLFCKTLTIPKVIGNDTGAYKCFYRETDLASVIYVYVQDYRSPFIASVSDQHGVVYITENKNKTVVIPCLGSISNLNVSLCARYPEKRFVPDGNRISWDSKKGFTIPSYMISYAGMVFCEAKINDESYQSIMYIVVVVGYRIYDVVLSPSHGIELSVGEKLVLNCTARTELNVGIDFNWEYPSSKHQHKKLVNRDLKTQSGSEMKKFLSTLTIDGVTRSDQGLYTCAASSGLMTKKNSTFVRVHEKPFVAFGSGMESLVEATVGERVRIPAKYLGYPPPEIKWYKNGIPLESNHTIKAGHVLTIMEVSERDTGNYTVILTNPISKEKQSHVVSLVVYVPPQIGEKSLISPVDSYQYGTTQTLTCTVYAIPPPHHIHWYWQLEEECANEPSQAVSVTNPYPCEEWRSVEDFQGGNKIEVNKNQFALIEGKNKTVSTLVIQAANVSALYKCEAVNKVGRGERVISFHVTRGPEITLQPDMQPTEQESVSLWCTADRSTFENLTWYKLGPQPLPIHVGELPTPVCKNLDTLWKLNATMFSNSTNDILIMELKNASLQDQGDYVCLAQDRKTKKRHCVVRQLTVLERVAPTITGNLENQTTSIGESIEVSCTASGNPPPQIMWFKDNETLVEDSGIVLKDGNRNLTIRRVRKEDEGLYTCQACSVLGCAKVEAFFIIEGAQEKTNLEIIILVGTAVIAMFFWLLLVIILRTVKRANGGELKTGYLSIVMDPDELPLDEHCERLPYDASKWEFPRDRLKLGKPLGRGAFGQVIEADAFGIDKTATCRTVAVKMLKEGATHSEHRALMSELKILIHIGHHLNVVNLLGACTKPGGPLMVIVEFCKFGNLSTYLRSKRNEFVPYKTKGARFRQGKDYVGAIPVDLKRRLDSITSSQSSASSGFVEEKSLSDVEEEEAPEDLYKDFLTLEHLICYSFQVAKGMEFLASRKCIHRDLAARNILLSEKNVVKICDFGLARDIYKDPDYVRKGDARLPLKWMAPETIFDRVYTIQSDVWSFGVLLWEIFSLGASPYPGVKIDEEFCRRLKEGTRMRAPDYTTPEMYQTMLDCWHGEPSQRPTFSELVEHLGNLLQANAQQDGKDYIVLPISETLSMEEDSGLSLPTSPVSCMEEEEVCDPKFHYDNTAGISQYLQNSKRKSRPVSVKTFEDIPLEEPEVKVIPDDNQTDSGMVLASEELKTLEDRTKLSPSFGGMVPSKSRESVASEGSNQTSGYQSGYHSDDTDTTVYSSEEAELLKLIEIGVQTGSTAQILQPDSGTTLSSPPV
Method: as §1

SMILES | pIC50 [1] | pIC50 [2] | IC50 [3] | IC50 [1] | IC50 [2]
COc1cc2c(Nc3ccc(Br)c(Cl)c3F)ncnc2cc1OC[C@H]1CN2CCOCC2CO1 (some centres undefined) [US9796704, Entry 30] | > 7.30 | > 7.30 | in the range around 525 nM | – | –
COc1cc2c(Nc3cccc(Cl)c3F)ncnc2cc1O[C@@H]1CO[C@@H]2[C@H]1OC[C@H]2F [US9796704, Entry 88] | – | – | in the range around 10500 nM | in the range around 525 nM | in the range around 525 nM
COc1cc2c(Nc3ccc(Cl)c(Cl)c3)ncnc2cc1OCc1nc2ccccc2s1 [US9796704, Entry 162] | – | – | in the range around 525 nM | in the range around 525 nM | in the range around 525 nM
COc1cc2c(Nc3ccc(C)c(Br)c3)ncnc2cc1O[C@@H]1CO[C@@H]2[C@H]1OC[C@H]2F [US9796704, Entry 131] | – | – | in the range around 525 nM | in the range around 525 nM | in the range around 525 nM
COc1cc2c(Nc3ccc(F)c(Cl)c3)ncnc2cc1O[C@@H]1CO[C@@H]2[C@H]1OC[C@H]2F [US9796704, Entry 95] | – | – | in the range around 525 nM | in the range around 525 nM | in the range around 525 nM
COc1cc2c(Nc3ccc(Cl)c(Cl)c3)ncnc2cc1OCc1cc(-c2ccccc2)no1 [US9796704, Entry 177] | – | – | in the range around 525 nM | in the range around 525 nM | in the range around 525 nM
COc1cc2c(Nc3ccc(Cl)c(Cl)c3)ncnc2cc1OCc1ccc(Cl)nc1 [US9796704, Entry 171] | – | – | in the range around 525 nM | in the range around 525 nM | in the range around 10500 nM
COc1cc2c(Nc3cc(F)c(Oc4ccc(Cl)cc4)c(F)c3)ncnc2cc1O[C@@H]1CO[C@@H]2[C@H]1OC[C@H]2F [US9796704, Entry 101] | – | – | in the range around 525 nM | in the range around 525 nM | in the range around 525 nM
COc1cc2c(Nc3ccc(F)cc3C(F)(F)F)ncnc2cc1O[C@@H]1CO[C@@H]2[C@H]1OC[C@H]2F [US9796704, Entry 126] | – | – | in the range around 10500 nM | in the range around 525 nM | in the range around 525 nM
COc1cc2c(Nc3ccc(Br)cc3)ncnc2cc1O[C@@H]1CO[C@@H]2[C@H]1OC[C@H]2F [US9796704, Entry 130] | – | – | in the range around 525 nM | in the range around 525 nM | in the range around 525 nM
COc1cc2c(Nc3ccc(Cl)c(Cl)c3)ncnc2cc1OCc1noc(COCc2ccccc2)n1 [US9796704, Entry 211] | – | – | in the range around 525 nM | in the range around 525 nM | in the range around 525 nM
COc1cc2c(Nc3ccc(Cl)c(Cl)c3)ncnc2cc1OCc1csc(C)n1 [US9796704, Entry 173] | – | – | in the range around 525 nM | in the range around 525 nM | in the range around 525 nM
COc1cc2c(Nc3ccc(Cl)c(Cl)c3)ncnc2cc1OCc1cnn(-c2ccccc2)c1 [US9796704, Entry 165] | – | – | in the range around 10500 nM | in the range around 525 nM | in the range around 525 nM
COc1cc2c(Nc3ccc(Cl)c(Cl)c3)ncnc2cc1OC[C@@H]1O[C@@H](OC)[C@@H](O)[C@H](O)[C@H]1O [US9796704, Entry 194] | > 7.30 | – | in the range around 525 nM | – | in the range around 525 nM
COc1ccc(-c2cc(COc3cc4ncnc(Nc5ccc(Cl)c(Cl)c5)c4cc3OC)on2)cc1 [US9796704, Entry 180] | – | – | in the range around 525 nM | in the range around 525 nM | in the range around 525 nM
COc1cc2c(Nc3cc(F)ccc3F)ncnc2cc1O[C@@H]1CO[C@@H]2[C@H]1OC[C@H]2F [US9796704, Entry 91] | – | – | in the range around 525 nM | in the range around 525 nM | in the range around 525 nM
COc1cc2c(Nc3ccccc3Cl)ncnc2cc1O[C@@H]1CO[C@@H]2[C@H]1OC[C@H]2F [US9796704, Entry 112] | – | – | in the range around 525 nM | in the range around 525 nM | in the range around 525 nM

SMILES | pIC50 [1] | pIC50 [2] | IC50 [3] | IC50 [1] | IC50 [2]
COc1cc2c(Nc3ccc(Cl)c(Cl)c3)ncnc2cc1OCc1noc(-c2cccc(C(F)(F)F)c2)n1 [US9796704, Entry 166] | – | – | – | in the range around 525 nM | in the range around 525 nM
COc1cc2c(Nc3cccc(C(F)(F)F)c3F)ncnc2cc1O[C@@H]1CO[C@@H]2[C@H]1OC[C@H]2F [US9796704, Entry 123] | – | – | in the range around 525 nM | in the range around 525 nM | in the range around 525 nM
COc1cc2c(Nc3ccc(Cl)c(Cl)c3)ncnc2cc1OCc1noc(C(C)(C)C)n1 [US9796704, Entry 157] | – | – | – | in the range around 525 nM | in the range around 525 nM
COc1cc2c(Nc3cc(Cl)ccc3F)ncnc2cc1O[C@@H]1CO[C@@H]2[C@H]1OC[C@H]2F [US9796704, Entry 93] | – | – | in the range around 525 nM | in the range around 525 nM | in the range around 525 nM
COc1cc2c(Nc3ccc(Cl)c(C(F)(F)F)c3)ncnc2cc1O[C@@H]1CO[C@@H]2[C@H]1OC[C@H]2F [US9796704, Entry 121] | – | – | in the range around 525 nM | in the range around 525 nM | in the range around 525 nM
COc1cc2c(Nc3ccc(Cl)c(Cl)c3)ncnc2cc1OCc1c(OC)ccc2cc(Br)ccc12 [US9796704, Entry 169] | – | – | in the range around 525 nM | in the range around 525 nM | in the range around 10500 nM
COc1cc2c(Nc3ccc(Cl)cc3)ncnc2cc1O[C@@H]1CO[C@@H]2[C@H]1OC[C@H]2F [US9796704, Entry 116] | – | – | in the range around 525 nM | in the range around 525 nM | in the range around 525 nM
C=C1CO[C@@H]2[C@@H](Oc3cc4ncnc(Nc5ccc(Br)c(Cl)c5)c4cc3OC)CO[C@H]12 [US9796704, Entry 81] | – | – | in the range around 525 nM | in the range around 525 nM | in the range around 525 nM
COc1cc2c(Nc3c(F)cccc3F)ncnc2cc1O[C@@H]1CO[C@@H]2[C@H]1OC[C@H]2F [US9796704, Entry 87] | – | – | – | in the range around 525 nM | in the range around 525 nM
COc1cc2c(Nc3ccc(Br)c(Cl)c3F)ncnc2cc1O[C@@H]1CO[C@@H]2[C@H]1OC[C@H]2F [US9796704, Entry 102] | – | – | in the range around 525 nM | in the range around 525 nM | in the range around 525 nM
COc1cc2c(Nc3ccccc3F)ncnc2cc1O[C@@H]1CO[C@@H]2[C@H]1OC[C@H]2F [US9796704, Entry 113] | – | – | in the range around 525 nM | in the range around 525 nM | in the range around 525 nM
COc1cc2c(Nc3ccc(Cl)c(Cl)c3)ncnc2cc1OCc1c(C(F)(F)F)nn(C)c1Oc1ccc(Cl)cc1Cl [US9796704, Entry 181] | – | – | in the range around 525 nM | in the range around 525 nM | in the range around 525 nM
COc1cc2c(Nc3ccc(Cl)c(Cl)c3)ncnc2cc1OCC1=CC2C(C(F)(F)F)=NN(C)C2S1 (centres undefined) [US9796704, Entry 176] | – | – | in the range around 525 nM | in the range around 525 nM | in the range around 525 nM
COc1cc2c(Nc3cc(C(F)(F)F)ccc3Cl)ncnc2cc1O[C@@H]1CO[C@@H]2[C@H]1OC[C@H]2F [US9796704, Entry 122] | – | – | – | in the range around 525 nM | in the range around 525 nM
COc1cc2c(Nc3ccc(Cl)c(Cl)c3F)ncnc2cc1OC[C@H]1CN2CCOCC2CO1 (some centres undefined) [US9796704, Entry 29] | – | > 7.30 | in the range around 525 nM | in the range around 525 nM | –
COc1cc2c(Nc3ccc(Cl)cc3F)ncnc2cc1O[C@@H]1CO[C@@H]2[C@H]1OC[C@H]2F [US9796704, Entry 109] | – | – | – | in the range around 525 nM | in the range around 525 nM
